The text below walks through data of publication PMC6835155, “Lessons from LIMK1 enzymology and their impact on inhibitor design” (Biochemical Journal, 2019).

The target of one assay is T1, LIMK2KD (Homo sapiens, UniProt P53671).
T1 construct: The cDNA coding for LIMK2 residues 330 to 632 was PCR amplified; His6 (N, cleaved yes); made in house; host or cells: baculovirus; Sf9 for virus, TriEx insect cells for expression
Nature of the assay: Differential (dynamic) scanning fluorimetry (DSF) assay, LIMK2KD. Type of assay: binding.

The target in another assay is T2, LIMK1KD (Homo sapiens, UniProt P53667).
T2 construct: His6 (N, cleaved yes); made in house; host or cells: baculovirus; Sf9 for virus, TriEx insect cells for expression
Briefly: Differential (dynamic) scanning fluorimetry (DSF) assay, LIMK1KD. The note with it: 2 µM LIMK1KD, compound 10 µM, single shot; for ΔTm at 10 µM: read-out: TM Shift LIMK1 (K). Type of assay: binding.

The mark [1] stands for this setting: LIMK2KD, compound 10 µM, single shot, read-out: TM Shift LIMK2 (K).
[2] abbreviates: LIMK2KD, compound 10 µM, single shot, 10 µM.
Where [3] appears, read: LIMK2KD, compound 10 µM, single shot.

Structures can show the parent of a compound that is named as a salt. Where two headings read alike, the source gives them in different places.

T2 sequence (P53667 330-637): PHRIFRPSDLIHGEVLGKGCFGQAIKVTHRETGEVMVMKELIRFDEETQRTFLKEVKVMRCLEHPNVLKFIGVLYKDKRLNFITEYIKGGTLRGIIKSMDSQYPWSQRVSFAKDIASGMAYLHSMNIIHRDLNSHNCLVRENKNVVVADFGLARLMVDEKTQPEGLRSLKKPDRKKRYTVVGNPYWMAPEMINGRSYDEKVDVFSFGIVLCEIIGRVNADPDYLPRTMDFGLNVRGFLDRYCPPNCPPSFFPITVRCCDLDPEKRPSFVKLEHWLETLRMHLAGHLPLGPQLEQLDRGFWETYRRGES
T1 sequence (P53671 330-632): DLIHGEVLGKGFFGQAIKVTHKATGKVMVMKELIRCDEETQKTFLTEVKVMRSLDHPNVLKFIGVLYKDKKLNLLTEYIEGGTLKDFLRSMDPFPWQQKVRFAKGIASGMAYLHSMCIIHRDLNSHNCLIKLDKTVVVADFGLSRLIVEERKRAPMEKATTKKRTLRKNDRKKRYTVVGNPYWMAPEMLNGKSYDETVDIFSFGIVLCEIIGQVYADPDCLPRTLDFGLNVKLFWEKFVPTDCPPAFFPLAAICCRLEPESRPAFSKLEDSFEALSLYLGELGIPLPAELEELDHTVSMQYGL

In the case of `Cc1cc2c(F)c(Oc3ncnn4cc(OC[C@@H](C)OC(=O)[C@H](C)N)c(C)c34)ccc2[nH]1` [Brivanib Alaninate (BMS-582664), Brivanib Alaninate], the ΔTm at 10 µM on LIMK2KD (setting [1]) amounted to 0 °C; at LIMK1KD it was 0.7 °C.
Regarding `Nc1cc(C(F)(F)F)c(-c2cc(N3CCOCC3)nc(N3CCOCC3)n2)cn1` [Buparlisib], the “TM Shift LIMK2 (K)” value was 0.0 K on LIMK2KD (setting [2]) and 0.7 K on LIMK2KD (LIMK2KD, compound 10 µM, single shot, listed as BKM120 (NVP-BKM120, Buparlisib), 10 µM). The “TM Shift LIMK1 (K)” value at LIMK1KD is reported as 0.6 K; on LIMK1KD (listed as BKM120 (NVP-BKM120, Buparlisib)), -1.9 K.
For the compound `O=C(/C=C/c1ccc(O)c(O)c1)c1ccc(O)cc1O` [Butein], the values for the ΔTm at 10 µM on LIMK2KD (setting [1]) and on LIMK1KD were 1.9 °C and -0.6 °C, respectively.
Consider `NC1(Cc2ccc(Cl)cc2)CCN(c2ncnc3[nH]ccc23)CC1` [CCT128930], for which the “TM Shift LIMK2 (K)” value at LIMK2KD (setting [3]) is 1.0 K. At LIMK1KD, the “TM Shift LIMK1 (K)” value was determined as 0.4 K.
With `CN(C)c1ccc(-c2nc3ncc(Cl)c(N4CCN(CC(=O)Nc5nccs5)CC4)c3[nH]2)cc1` [CCT129202], on LIMK2KD (setting [3]), the “TM Shift LIMK2 (K)” value was 4.6 K. At LIMK1KD, the “TM Shift LIMK1 (K)” value came out at 2.4 K.
Regarding `Cc1cc(CN2CCN(c3c(Br)cnc4nc(-c5ccc(N6CCN(C)CC6)cc5)[nH]c34)CC2)no1` [CCT137690], the “TM Shift LIMK2 (K)” value at LIMK2KD (setting [3]) was found to be 3.5 K. Also, the “TM Shift LIMK1 (K)” value on LIMK1KD turned out to be 3.4 K.
With `COc1cc2ncnc(Oc3cccc(NC(=O)Nc4cc(C(C)(C)C(F)(F)F)on4)c3)c2cc1OC` [CEP-32496], the ΔTm at 10 µM is -0.1 °C at LIMK2KD (setting [1]) and -0.2 °C at LIMK1KD.
In the case of `CN1CCN(c2cccc(Nc3nc4c(-c5ccc(S(C)(=O)=O)cc5)cccn4n3)c2)CC1` [CEP-33779], on LIMK2KD (setting [3]), the “TM Shift LIMK2 (K)” value came to 1.5 K. For the same compound, the “TM Shift LIMK1 (K)” value on LIMK1KD is given as 1.0 K.
On to `O=C(NC(NC(=S)Nc1ccc(F)c([N+](=O)[O-])c1)C(Cl)(Cl)Cl)C(c1ccccc1)c1ccccc1` (centres unmarked) [CGK 733], for which, on LIMK2KD (setting [3]), the “TM Shift LIMK2 (K)” value is given as 4.2 K. Also, the “TM Shift LIMK1 (K)” value on LIMK1KD worked out at 0.7 K.
As for `CS(=O)(=O)N1CCc2c(-c3cnc(N)nc3)nc(N3CCOCC3)nc21` [CH5132799], the values for the ΔTm at 10 µM at LIMK2KD (setting [1]) and on LIMK1KD were 0.1 °C and 1.3 °C, respectively.
As to `O=c1[nH]c2ccc(Cl)cc2c(N[C@@H]2CN3CCC2CC3)c1-c1nc2ccccc2[nH]1` [CHIR-124], on LIMK2KD (setting [3]), the “TM Shift LIMK2 (K)” value is on record as -1.7 K. Moreover, the “TM Shift LIMK1 (K)” value at LIMK1KD is 2.2 K.
Take `Cc1c[nH]c(-c2cnc(NCCNc3ccc(C#N)cn3)nc2-c2ccc(Cl)cc2Cl)n1` [CHIR-99021 (CT99021) HCl]: the ΔTm at 10 µM is -0.3 °C at LIMK2KD (setting [1]) and 3.1 °C at LIMK1KD.
`C=CC(=O)Nc1cccc(Nc2nc(Nc3ccc(Oc4ccnc(C(=O)NC)c4)cc3)ncc2F)c1` [CNX-774]: the “TM Shift LIMK2 (K)” value at LIMK2KD (setting [3]) is 1.2 K. The “TM Shift LIMK1 (K)” value at LIMK1KD is 1.6 K.
As to `C=CC(=O)Nc1cccc(Nc2nc(Nc3ccc(N4CCN(C(C)=O)CC4)cc3OC)ncc2C(F)(F)F)c1` [CO-1686 (AVL-301)], the results for the ΔTm at 10 µM at LIMK2KD (setting [1]) and at LIMK1KD were -0.4 °C and 0.4 °C, respectively.
As to `COCCOc1ccc2c(c1)ncn2-c1ccc2cccc(N3CCC(N)CC3)c2n1` [CP-673451], the results for the ΔTm at 10 µM at LIMK2KD (setting [1]) and at LIMK1KD were 1.9 °C and 0.9 °C, respectively.
Regarding `COCC(=O)NC/C=C/c1ccc2ncnc(Nc3ccc(Oc4ccc(C)nc4)c(C)c3)c2c1` [CP-724714], the ΔTm at 10 µM on LIMK2KD (setting [1]) was -0.8 °C; at LIMK1KD it was 0.4 °C.
The corresponding values for `C#Cc1cccc(Nc2ncnc3cc(OC)c(OCCCCCCC(=O)NO)cc23)c1` [CUDC-101] are 1.6 °C and 0.8 °C.
On to `COc1ccc(-c2nc(N3CCOCC3)c3sc(CN(C)c4ncc(C(=O)NO)cn4)cc3n2)cn1` [CUDC-907], for which the results for the ΔTm at 10 µM on LIMK2KD (setting [1]) and at LIMK1KD were -0.1 °C and 0.3 °C, respectively.
The like results for `Cc1nc(N)sc1-c1ccnc(Nc2ccc(N3CCOCC3)cc2)n1` [CYC116] were, in that order, 1.6 °C and 3.7 °C.
For `N#CCNC(=O)c1ccc(-c2ccnc(Nc3ccc(N4CCOCC4)cc3)n2)cc1` [CYT387], the “TM Shift LIMK2 (K)” value at LIMK2KD (setting [2]) was 0.8 K. Moreover, the “TM Shift LIMK1 (K)” value at LIMK1KD was 1.2 K.
For the compound `CC(C)(C)NS(=O)(=O)c1cncc(-c2cc(F)c3nc(N)nn3c2)c1` [CZC24832], the ΔTm at 10 µM was -0.1 °C at LIMK2KD (setting [1]) and -0.4 °C on LIMK1KD.
Regarding `COc1cc2nccc(Oc3ccc(NC(=O)C4(C(=O)Nc5ccc(F)cc5)CC4)cc3)c2cc1OC` [Cabozantinib (XL184, BMS-907351), Cabozantinib], the ΔTm at 10 µM stood at 0.6 °C at LIMK2KD (setting [1]) and 2.5 °C on LIMK1KD.
Turning to `C=CC(=O)Nc1cc2c(Nc3ccc(F)c(Cl)c3)ncnc2cc1OCCCN1CCOCC1` [Canertinib (CI-1033), Canertinib], the ΔTm at 10 µM at LIMK2KD (setting [1]) is 0.5 °C; at LIMK1KD, 0.9 °C.
With `COc1cc2c(Oc3ccc4[nH]c(C)cc4c3F)ncnc2cc1OCCCN1CCCC1` [Cediranib (AZD2171), Cediranib], the ΔTm at 10 µM was 0.5 °C on LIMK2KD (setting [1]) and -0.2 °C on LIMK1KD.
For the compound `Cc1cc(O)c2c(c1)C(=O)c1cccc(O)c1C2=O` [Chrysophanic Acid], the ΔTm at 10 µM amounted to 1.3 °C at LIMK2KD (setting [1]) and 0.9 °C on LIMK1KD.
The like results for `CC1(COc2ccc3c(c2)ncn3-c2ccc3cccc(N4CCC(N)CC4)c3n2)COC1` [Crenolanib (CP-868596), Crenolanib] were, in that order, 0.5 °C and 1 °C.
The corresponding values for `C[C@@H](Oc1cc(-c2cnn(C3CCNCC3)c2)cnc1N)c1c(Cl)ccc(F)c1Cl` [Crizotinib (PF-02341066), Crizotinib] are 1.4 °C and 3.9 °C.
On to `COc1cc2ncnc(Nc3ccc(F)c(Cl)c3)c2cc1NC(=O)/C=C/CN1CCCCC1` [Dacomitinib (PF299804, PF299), Dacomitinib], for which the ΔTm at 10 µM came out at 0.2 °C on LIMK2KD (setting [1]) and 0.9 °C on LIMK1KD.
Consider `Cn1c(=O)n(-c2ccc(C(C)(C)C#N)cc2)c2c3cc(-c4cnc5ccccc5c4)ccc3ncc21` [Dactolisib], for which the “TM Shift LIMK2 (K)” value is reported as -0.3 K at LIMK2KD (setting [2]) and 0.1 K at LIMK2KD (LIMK2KD, compound 10 µM, single shot, listed as BEZ235 (NVP-BEZ235, Dactolisib), 10 µM). Also, the “TM Shift LIMK1 (K)” value on LIMK1KD is on record as 0.3 K; at LIMK1KD (listed as BEZ235 (NVP-BEZ235, Dactolisib)) it was -0.1 K.
Consider `CO[C@@H](C(=O)N1Cc2n[nH]c(NC(=O)c3ccc(N4CCN(C)CC4)cc3)c2C1)c1ccccc1` [Danusertib (PHA-739358), Danusertib], for which the ΔTm at 10 µM came to 1 °C on LIMK2KD (setting [1]) and 5 °C at LIMK1KD.
With `Cc1nc(Nc2ncc(C(=O)Nc3c(C)cccc3Cl)s2)cc(N2CCN(CCO)CC2)n1` [Dasatinib], the ΔTm at 10 µM on LIMK2KD (read-out: TM Shift LIMK2 (K), LIMK2KD, compound 10 µM, single shot) came out at 1.7 °C; on LIMK1KD it was 7 °C.
As to `CCC[C@H](NC(=O)/C(C#N)=C/c1cccc(Br)n1)c1ccccc1` [Degrasyn (WP1130), Degrasyn], the “TM Shift LIMK2 (K)” value on LIMK2KD (setting [3]) amounted to 0.7 K. Besides, at LIMK1KD, the “TM Shift LIMK1 (K)” value was -1.0 K.
For `CCc1cnn2c(NCc3ccc[n+]([O-])c3)cc(N3CCCC[C@H]3CCO)nc12` [Dinaciclib (SCH727965), Dinaciclib], the ΔTm at 10 µM at LIMK2KD (setting [1]) was 0.6 °C; at LIMK1KD, -0.3 °C.
For `Cc1ccc(-n2nc(C(C)(C)C)cc2NC(=O)Nc2ccc(OCCN3CCOCC3)c3ccccc23)cc1` [Doramapimod], at LIMK2KD (setting [2]), the “TM Shift LIMK2 (K)” value amounted to 0.7 K. In addition, on LIMK2KD (setting [1]), the ΔTm at 10 µM was determined as 0.9 °C. Moreover, the “TM Shift LIMK1 (K)” value at LIMK1KD is given as -0.1 K; on LIMK1KD (listed as BIRB 796 (Doramapimod)), 0.5 K.
For the compound `CN1CCN(c2ccc3nc(-c4c(N)c5c(F)cccc5[nH]c4=O)[nH]c3c2)CC1` [Dovitinib (TKI-258) Dilactic Acid, Dovitinib], the ΔTm at 10 µM at LIMK2KD (setting [1]) was 3.8 °C; on LIMK1KD it was 2.2 °C.
As to `CCn1c2ccccc2c2cc(Nc3ccnc(NCCCN4CCOCC4)n3)ccc21` [EHop-016], at LIMK2KD (setting [3]), the “TM Shift LIMK2 (K)” value was -0.7 K. The “TM Shift LIMK1 (K)” value on LIMK1KD was -0.1 K.
On to `Cc1cc(Nc2cc(N3CCN(C)CC3)nc(/C=C/c3ccccc3)n2)n[nH]1` [ENMD-2076], for which the results for the ΔTm at 10 µM on LIMK2KD (setting [1]) and at LIMK1KD were 6 °C and 4.6 °C, respectively.
For `CC(C)(C#N)c1ccc(N2C(=O)OCc3cnc4ccc(-c5cnc6ccccc6c5)cc4c32)cc1` [ETP-46464], at LIMK2KD (setting [3]), the “TM Shift LIMK2 (K)” value was -0.5 K. For the same compound, at LIMK1KD, the “TM Shift LIMK1 (K)” value is listed as -0.5 K.
Turning to `Cn1cc(C2=C(c3cn(C4CCN(Cc5ccccn5)CC4)c4ccccc34)C(=O)NC2=O)c2ccccc21` [Enzastaurin (LY317615), Enzastaurin], the ΔTm at 10 µM on LIMK2KD (setting [1]) is 1.6 °C; at LIMK1KD it was 1 °C.
Regarding `C#Cc1cccc(Nc2ncnc3cc(OCCOC)c(OCCOC)cc23)c1` [Erlotinib HCl (OSI-744), Erlotinib HCl], the ΔTm at 10 µM on LIMK2KD (setting [1]) is 0.5 °C; on LIMK1KD it was 0.1 °C.
As for `CO[C@H]1C[C@@H]2CC[C@@H](C)[C@@](O)(O2)C(=O)C(=O)N2CCCC[C@H]2C(=O)O[C@H]([C@H](C)C[C@@H]2CC[C@@H](OCCO)[C@H](OC)C2)CC(=O)[C@H](C)/C=C(\C)[C@@H](O)[C@@H](OC)C(=O)[C@H](C)C[C@H](C)/C=C/C=C/C=C/1C` [Everolimus (RAD001), Everolimus], the results for the ΔTm at 10 µM on LIMK2KD (setting [1]) and on LIMK1KD were -0.9 °C and 0.1 °C, respectively.
On to `O=S(=O)(c1cccc2cnccc12)N1CCCNCC1` [Fasudil (HA-1077) HCl, Fasudil], for which the ΔTm at 10 µM at LIMK2KD (setting [1]) worked out at 0.9 °C; on LIMK1KD, 0.8 °C.
The like results for `Cc1cnc(Nc2ccc(OCCN3CCCC3)cc2)nc1Nc1cccc(S(=O)(=O)NC(C)(C)C)c1` [Fedratinib] were, in that order, 1.4 °C and 3.2 °C.
